Where two headings read alike, the source gives them in different places.
Experiments:
[1] = system: virus containing N155H mutation in the integrase gene; settings: k = IC50(mutant)/IC50(wild type)
Procedure: (§1) An assay for measuring the inhibition of acute HIV infection with HeLa P4-2 cells in a single cycle infectivity assay was conducted using methods described in Joyce et al., J. Biol. Chem. 2002, 277: 45811, Hazuda et al., Science 2000, 287: 646, and Kimpton et al, J. Virol. 1992, 66: 2232. Proviral plasmids encoding viruses containing specific mutations in the integrase gene (N155H, Q148R, Y143R, E92Q, or G140S/Q148H) were generated by site-directed mutagenesis, and viruses were produced by transfecting 293T cells with the appropriate proviral plasmids.

[2] = system: virus containing G140S/Q148H mutation in the integrase gene; settings: k = IC50(mutant)/IC50(wild type)
Procedure: as §1

[3] = system: virus containing Q148R mutation in the integrase gene; settings: k = IC50(mutant)/IC50(wild type)
Procedure: as §1

[4] = target: T1, recombinant integrase (HIV-1 integrase) (Human immunodeficiency virus type 1 group M subtype B, UniProt P04585); experiment: HIV-1 integrase assay: strand transfer catalyzed by recombinant integrase; type: biochemical; settings: strand transfer activity
T1 construct: Assays for the strand transfer activity of integrase were conducted in accordance with WO 02/30930 for recombinant integrase
Procedure: HIV-1 Integrase Assay: Strand Transfer Catalyzed by Recombinant Integrase
Assays for the strand transfer activity of integrase were conducted in accordance with WO 02/30930 for recombinant integrase. […] For example, the compounds prepared in Examples 1 to 5 were tested in the integrase assay and found to have the IC50 values in Table B. (Compounds 6A and 6B were not tested in this assay.)
Further description on conducting the assay using preassembled complexes is found in Wolfe, A. L. et al., J. Virol. 1996, 70: 1424-1432, Hazuda et al., J. Virol. 1997, 71: 7005-7011; Hazuda et al., Drug Design and Discovery 1997, 15: 17-24; and Hazuda et al., Science 2000, 287: 646-650.

[5] = system: wild type IIIB; experiment: Single cycle infectivity assay in HeLa P4-2 cells, wild type virus; type: cell-based, HIV; settings: single cycle infectivity, wild type IIIB, read-out: wild type IIIB IC50
[6] = system: HIV-1; experiment: Inhibition of acute HIV-1 infection of T-lymphoid cells (spread assay); type: cell-based
Procedure: Assay for Inhibition of HIV-1 Replication
Assays for the inhibition of acute HIV-1 infection of T-lymphoid cells were conducted in accordance with Vacca, J. P. et al, Proc. Natl. Acad. Sci. USA 1994, 91: 4096.

[7] = system: virus containing Y143R mutation in the integrase gene; settings: k = IC50(mutant)/IC50(wild type)
Procedure: as §1

[8] = Human immunodeficiency virus 1, IIIB, HeLaP4-2, HeLa P4-2 cells

Row | SMILES | Number of fold shift in IC50 versus wild type IIIB, N155H [1] | Number of fold shift in IC50 versus wild type IIIB, G140S/Q148H [2] | Number of fold shift in IC50 versus wild type IIIB, Q148R [3] | IC50 ([4]; read-out: IC50) [nM] | IC50 [5, 8] [nM] | IC95 (nM) in the presence of 10% FBS [6] [nM] | Number of fold shift in IC50 versus wild type IIIB, Y143R [7] | IC50 ([4]; IC50 (nM)) [nM] | IC50 ([5]; HeLa P4-2 cells) [nM]
1 | Cc1ccc(CNC(=O)c2nc3n(c(=O)c2O)[C@H](C)CCC[C@H]3N(C)C(=O)C(=O)N(C)C)cc1F (racemic) [Compound 3A, Racemic-trans-N-(2-{[(3-fluoro-4-methylbenzyl)amino]carbonyl}-3-hydroxy-6-methyl-4-oxo-4,6,7,8,9,10-hexahydropyrimido[1,2-a]azepin-10-yl)-N,N′,N′-trimethylethanediamide] | 1 | 4 | 1 | 40 | 31 | 18 | – | – | –
2 | COC1(C)CCC(N(C)C(=O)C(=O)N(C)C)c2nc(C(=O)NCc3ccc(F)c(C)c3)c(O)c(=O)n2C1 (single isomer, unassigned) [Compound 2C, N-(2-{[(4-fluoro-3-methylbenzyl)amino]carbonyl}-3-hydroxy-7-methoxy-7-methyl-4-oxo-4,6,7,8,9,10-hexahydropyrimido[1,2-a]azepin-10-yl)-N,N′,N′-trimethylethanediamide] | 19 | 68 | 22 | – | – | 9 | 3 | 73 | 8
3 | COC1(C)CCC(N(C)C(=O)C(=O)N(C)C)c2nc(C(=O)NCc3ccc(F)c(C)c3)c(O)c(=O)n2C1 (single isomer, unassigned) [Compound 2D, N-(2-{[(4-fluoro-3-methylbenzyl)amino]carbonyl}-3-hydroxy-7-methoxy-7-methyl-4-oxo-4,6,7,8,9,10-hexahydropyrimido[1,2-a]azepin-10-yl)-N,N′,N′-trimethylethanediamide] | 2 | 4 | 1 | – | – | 14 | 2 | 46 | 23
4 | Cc1ccc(CNC(=O)c2nc3n(c(=O)c2O)C(C)CCCC3N(C)C(=O)C(=O)N(C)C)cc1F (single isomer, unassigned) [Compound 3B, Cis-N-(2-{[(3-fluoro-4-methylbenzyl)amino]carbonyl}-3-hydroxy-6-methyl-4-oxo-4,6,7,8,9,10-hexahydropyrimido[1,2-a]azepin-10-yl)-N,N′,N′-trimethylethanediamide] | 1 | 2 | 1 | – | 48 | 41 | 1 | 44 | –
5 | CN(C)C(=O)C(=O)N(C)C1COCCn2c1nc(C(=O)NCc1ccc(F)cc1)c(O)c2=O (single isomer, unassigned; (+)) [Compound V, (+)N-(2-{[(4-fluorobenzyl)amino]carbonyl}-3-hydroxy-4-oxo-6,7,9,10-tetrahydro-4h-pyrimido[1,2-d][1,4]oxazepin-10-yl)-N,N′,N′-trimethylethanediamide, reference compound] | 10 | >32 | 13 | – | 37 | – | 1 | – | –
6 | CN(C)C(=O)C(=O)N(C)C1COCCn2c1nc(C(=O)NCc1ccc(F)cc1)c(O)c2=O (single isomer, unassigned; (-)) [Compound W, (−)N-(2-{[(4-fluorobenzyl)amino]carbonyl}-3-hydroxy-4-oxo-6,7,9,10-tetrahydro-4h-pyrimido[1,2-d][1,4]oxazepin-10-yl)-N,N′,N′-trimethylethanediamide, reference compound] | 29 | >73 | 67 | – | – | – | 3 | – | 26
7 | Cc1cc(CNC(=O)c2nc3n(c(=O)c2O)CC(C)(C)CC[C@H]3N(C)C(=O)C(=O)N(C)C)ccc1F [Compound 1A, N-((10R)-2-{[(4-fluoro-3-methylbenzyl)amino]carbonyl}-3-hydroxy-7,7-dimethyl-4-oxo-4,6,7,8,9,10-hexahydropyrimido[1,2-a]azepin-10-yl)-N,N′,N′-trimethylethanediamide] | 1 | 9 | 2 | 42 | 41 | 12 | 1 | – | –
8 | Cc1cc(CNC(=O)c2nc3n(c(=O)c2O)CC(C)(C)CC[C@@H]3N(C)C(=O)C(=O)N(C)C)ccc1F [Compound 1B, N-((10S)-2-{[(4-fluoro-3-methylbenzyl)amino]carbonyl}-3-hydroxy-7,7-dimethyl-4-oxo-4,6,7,8,9,10-hexahydropyrimido[1,2-a]azepin-10-yl)-N,N′,N′-trimethylethanediamide] | 14 | 34 | 12 | 38 | 13 | 10 | 1 | – | –
9 | CO[C@@]1(C)CC[C@H](N(C)C(=O)C(=O)N(C)C)c2nc(C(=O)NCc3ccc(F)c(C)c3)c(O)c(=O)n2C1 [Compound 2B, N-((7S,10S)-2-{[(4-fluoro-3-methylbenzyl)amino]carbonyl}-3-hydroxy-7-methoxy-7-methyl-4-oxo-4,6,7,8,9,10-hexahydropyrimido[1,2-a]azepin-10-yl)-N,N′,N′-trimethylethanediamide] | 24 | 190 | 24 | – | 8 | 9 | 3 | 41 | –
10 | Cc1cc(CNC(=O)c2nc3n(c(=O)c2O)[C@@H](C)COC[C@@H]3N(C)C(=O)C(=O)N(C)C)ccc1F [Compound 4B, N-((6S,10R)-2-{[(4-fluoro-3-methylbenzyl)amino]carbonyl}-3-hydroxy-6-methyl-4-oxo-6,7,9,10-tetrahydro-4H-pyrimido[1,2-d][1,4]oxazepin-10-yl)-N,N′,N′-trimethylethanediamide] | 2 | 20 | 3 | 39 | 32 | 7 | 2 | – | –
11 | Cc1cc(CNC(=O)c2nc3n(c(=O)c2O)[C@H](C)COC[C@@H]3N(C)C(=O)C(=O)N(C)C)ccc1F [Compound 4C, N-((6R,10R)-2-{[(4-fluoro-3-methylbenzyl)amino]carbonyl}-3-hydroxy-6-methyl-4-oxo-6,7,9,10-tetrahydro-4H-pyrimido[1,2-d][1,4]oxazepin-10-yl)-N,N′,N′-trimethylethanediamide] | 3 | 11 | 3 | 48 | 26 | 10 | 1 | – | –
12 | CCN(C(=O)C(=O)N(C)C)[C@H]1CC[C@H](OC)Cn2c1nc(C(=O)NCc1ccc(F)cc1)c(O)c2=O [Compound 6B, N-ethyl-N-((7S,10S)-2-{[(4-fluorobenzyl)amino]carbonyl}-3-hydroxy-7-methoxy-4-oxo-4,6,7,8,9,10-hexahydropyrimido[1,2-a]azepin-10-yl)-N,N-dimethylethanediamide] | 13 | >100 | >100 | – | 13 | 14 | >100 | – | –
